In publication PMC8221234 (Chemical biology & drug design, 2009):

Assays:
[1] = test system: eIF2α phosphorylation in NIH3T3 cells; assay: UV-induced eIF2α phosphorylation in NIH3T3 cells; type: cell-based; settings: compared with MEFs, data not shown
[2] = test system: eIF2α phosphorylation in NIH3T3 cells; settings: cited from earlier work

Oc1c2ccccc2c2c3c(cccc13)N=N2 [SP600125]
Effect on UV-induced eIF2α phosphorylation in NIH3T3 cells (qualitative) [1]: does not prevent eIF2α phosphorylation | Effect on eIF2α phosphorylation following UV irradiation (qualitative) [2]: did not prevent the phosphorylation of eIF2α
